Consider eight compounds from US11780893B2, “Kv1.3 blockers” (Zealand Pharma A/S, priority 2019, dated 2023).

SMILES strings stand for the structures. pIC50: −log10 of the molar value. Where two headings read alike, the source gives them in different places. Bridge positions count the residues as written; N and C are the ends. Square brackets hold non-standard residues; d marks the D form. Peptide text beside a SMILES is read from it. Phe(4-F) = N[C@@H](Cc1ccc(F)cc1)C(=O)O; Phe(4-Me) = Cc1ccc(C[C@H](N)C(=O)O)cc1; hLys = NCCCCC[C@H](N)C(=O)O; Nle = CCCC[C@H](N)C(=O)O Some results are limits rather than exact numbers.

Assay [1] addresses T1, human Kv1.3 voltage-gated K+ channel (Homo sapiens, UniProt P22001).
T1 construct: host or cells: CHO-DUKX
Kind of assay: cell-based. To be noted: inhibition of thallium flux, CHO-DUKX cells with human Kv1.3; read-out: IC50.

A further assay addresses Rat whole blood (Rattus norvegicus, UniProt P15384).
[2] abbreviates: inhibition of IL-17A release, thapsigargin, 24 Hr, at least 2 replicates.

Sequence of Rat whole blood (P15384 whole entry): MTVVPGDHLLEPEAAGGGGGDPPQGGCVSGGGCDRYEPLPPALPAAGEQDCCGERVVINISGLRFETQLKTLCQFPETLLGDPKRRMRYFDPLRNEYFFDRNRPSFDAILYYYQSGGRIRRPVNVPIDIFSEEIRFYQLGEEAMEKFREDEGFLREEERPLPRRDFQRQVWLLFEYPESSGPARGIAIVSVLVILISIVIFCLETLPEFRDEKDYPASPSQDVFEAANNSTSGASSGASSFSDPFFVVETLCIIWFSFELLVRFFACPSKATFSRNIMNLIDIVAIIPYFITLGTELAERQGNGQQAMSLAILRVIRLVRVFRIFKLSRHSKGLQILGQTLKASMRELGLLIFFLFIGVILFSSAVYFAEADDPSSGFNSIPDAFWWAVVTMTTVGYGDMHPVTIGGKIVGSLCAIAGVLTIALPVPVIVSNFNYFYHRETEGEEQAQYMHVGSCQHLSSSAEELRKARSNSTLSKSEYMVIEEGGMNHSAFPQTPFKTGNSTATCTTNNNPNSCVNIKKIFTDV
T1 sequence (P22001 whole entry): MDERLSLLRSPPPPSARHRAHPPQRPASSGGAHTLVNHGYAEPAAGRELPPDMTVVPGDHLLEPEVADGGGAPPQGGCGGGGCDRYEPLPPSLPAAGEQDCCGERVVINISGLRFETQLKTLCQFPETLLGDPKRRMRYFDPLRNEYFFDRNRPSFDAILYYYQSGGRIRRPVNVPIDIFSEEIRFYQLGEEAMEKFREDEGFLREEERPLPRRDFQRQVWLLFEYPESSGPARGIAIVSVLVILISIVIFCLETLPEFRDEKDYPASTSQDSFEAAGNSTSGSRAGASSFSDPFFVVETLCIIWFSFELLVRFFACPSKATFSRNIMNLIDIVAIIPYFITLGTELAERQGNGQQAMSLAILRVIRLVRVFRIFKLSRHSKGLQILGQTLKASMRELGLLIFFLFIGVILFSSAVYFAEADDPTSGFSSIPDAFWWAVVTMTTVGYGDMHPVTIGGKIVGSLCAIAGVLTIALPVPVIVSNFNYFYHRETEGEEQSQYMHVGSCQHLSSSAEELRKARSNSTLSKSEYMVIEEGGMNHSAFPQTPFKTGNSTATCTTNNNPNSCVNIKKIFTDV

For `CCCC[C@@H]1NC(=O)[C@@H]2CSSC[C@H](NC(=O)[C@H](CCCNC(=N)N)NC(=O)[C@@H](N)CC(C)C)C(=O)N[C@@H](CO)C(=O)N[C@@H](C)C(=O)N[C@@H](CO)C(=O)N[C@@H](C(C)C)C(=O)N[C@@H](CCC(=O)O)C(=O)N[C@H]3CSSC[C@H](NC(=O)[C@H](CCCCN)NC(=O)[C@H](CCCCN)NC(=O)[C@H](CC(N)=O)NC1=O)C(=O)N[C@@H](CCCCN)C(=O)N[C@H](C(=O)N[C@@H](Cc1ccc(O)cc1)C(=O)N1CCC[C@H]1C(=O)N[C@@H](CCCNC(=N)N)C(=O)O)CSSC[C@H](NC(=O)[C@H](CCCCN)NC(=O)[C@H](CCC(N)=O)NC(=O)[C@H](CCCCN)NC3=O)C(=O)N[C@@H](CC(C)C)C(=O)N[C@@H](CCCCN)C(=O)N[C@@H](C)C(=O)N[C@@H]([C@@H](C)CC)C(=O)NCC(=O)N[C@@H](CO)C(=O)N[C@@H]([C@@H](C)CC)C(=O)N[C@@H](Cc1ccccc1)C(=O)NCC(=O)N[C@@H](CCCCN)C(=O)N2` [Compound 114] (H-LRCSASVECKQKCLKAIGSIFGKC[Nle]NKKCKCYPR-OH; disulfide 3-24, 9-29, 13-31), the pIC50 in assay [1] was 9.41; against Rat whole blood (setting [2]) it was 8.68.
Turning to `CCCC[C@H](NC(=O)[C@H](CC(=O)O)NC(=O)[C@H](CCCC)NC(=O)[C@@H](N)CO)C(=O)N[C@@H](CCCNC(=N)N)C(=O)N[C@H]1CSSC[C@@H]2NC(=O)[C@H](CCCCN)NC(=O)CNC(=O)[C@H](Cc3ccccc3)NC(=O)[C@H]([C@@H](C)CC)NC(=O)[C@H](CO)NC(=O)CNC(=O)[C@H]([C@@H](C)CC)NC(=O)[C@H](C)NC(=O)[C@H](CCCCN)NC(=O)[C@H](CC(C)C)NC(=O)[C@@H]3CSSC[C@@H](C(=O)N[C@@H](Cc4ccc(F)cc4)C(=O)N4CCC[C@H]4C(=O)N[C@@H](CCCNC(=N)N)C(N)=O)NC(=O)[C@H](CCCCN)NC(=O)[C@H](CSSC[C@H](NC(=O)[C@H](CCC(=O)O)NC(=O)[C@H](C(C)C)NC(=O)[C@H](CO)NC(=O)[C@H](C)NC(=O)[C@H](CO)NC1=O)C(=O)N[C@@H](CCCCN)C(=O)N[C@@H](CCC(N)=O)C(=O)N[C@@H](CCCCN)C(=O)N3)NC(=O)[C@H](CCCCN)NC(=O)[C@H](CCCCN)NC(=O)[C@H](CC(N)=O)NC(=O)[C@H](CCSC)NC2=O` [Compound 91] (H-S[Nle]D[Nle]RCSASVECKQKCLKAIGSIFGKCMNKKCKC[Phe(4-F)]PR-NH2; disulfide 6-27, 12-32, 16-34), the figures for the pIC50 (in assay [1]; against Rat whole blood; against Rat whole blood (setting [2])) were 10.00, no less than 9.00 and 9.47, respectively.
On the same counts, the results for `CCCC[C@@H]1NC(=O)[C@@H]2CSSC[C@H](NC(=O)[C@H](CCCNC(=N)N)NC(=O)[C@H](CCCC)NC(=O)[C@H](CC(=O)O)NC(=O)[C@H](CCCC)NC(=O)[C@@H](N)CO)C(=O)N[C@@H](CO)C(=O)N[C@@H](C)C(=O)N[C@@H](CO)C(=O)N[C@@H](C(C)C)C(=O)N[C@@H](CCC(=O)O)C(=O)N[C@H]3CSSC[C@H](NC(=O)[C@H](CCCCN)NC(=O)[C@H](CCCCN)NC(=O)[C@H](CC(N)=O)NC1=O)C(=O)N[C@@H](CCCCN)C(=O)N[C@H]1CSSC[C@H](NC(=O)[C@H](CCCCN)NC(=O)[C@H](CCC(N)=O)NC(=O)[C@H](CCCCN)NC3=O)C(=O)N[C@@H](CC(C)C)C(=O)N[C@@H](C)C(=O)N[C@@H](C)C(=O)N[C@@H]([C@@H](C)CC)C(=O)NCC(=O)N[C@@H](CSSC[C@@H](C(N)=O)NC(=O)[C@@H]3CCCN3C(=O)[C@H](Cc3ccc(O)cc3)NC1=O)C(=O)N[C@@H]([C@@H](C)CC)C(=O)N[C@@H](Cc1ccccc1)C(=O)NCC(=O)N[C@@H](CCCCN)C(=O)N2` [Compound 87] (H-S[Nle]D[Nle]RCSASVECKQKCLAAIGCIFGKC[Nle]NKKCKCYPC-NH2; disulfide 6-27, 12-32, 16-34, 22-37) are 10.00, no less than 9.00 and 9.14.
Regarding `CCCC[C@H](NC(=O)[C@H](CC(=O)O)NC(=O)[C@H](CCCC)NC(=O)[C@@H](N)CO)C(=O)N[C@@H](CCCNC(=N)N)C(=O)N[C@H]1CSSC[C@@H]2NC(=O)[C@H](CCCCCN)NC(=O)CNC(=O)[C@H](Cc3ccccc3)NC(=O)[C@H]([C@@H](C)CC)NC(=O)[C@H](CO)NC(=O)CNC(=O)[C@H]([C@@H](C)CC)NC(=O)[C@H](C)NC(=O)[C@H](CCCCN)NC(=O)[C@H](CC(C)C)NC(=O)[C@@H]3CSSC[C@@H](C(=O)N[C@@H](Cc4ccc(O)cc4)C(=O)N4CCC[C@H]4C(=O)N[C@@H](CCCNC(=N)N)C(N)=O)NC(=O)[C@H](CCCCN)NC(=O)[C@H](CSSC[C@H](NC(=O)[C@H](CCC(=O)O)NC(=O)[C@H](C(C)C)NC(=O)[C@H](CO)NC(=O)[C@H](C)NC(=O)[C@H](CO)NC1=O)C(=O)N[C@@H](CCCCN)C(=O)N[C@@H](CCC(N)=O)C(=O)N[C@@H](CCCCN)C(=O)N3)NC(=O)[C@H](CCCCN)NC(=O)[C@H](CCCCN)NC(=O)[C@H](CC(N)=O)NC(=O)[C@H](CCSC)NC2=O` [Compound 69] (H-S[Nle]D[Nle]RCSASVECKQKCLKAIGSIFG[hLys]CMNKKCKCYPR-NH2; disulfide 6-27, 12-32, 16-34), the values for the pIC50 (in assay [1]; against Rat whole blood (setting [2])) were 9.24 and 8.57, respectively.
For the compound `CCCC[C@H](NC(=O)[C@H](CC(=O)O)NC(=O)[C@H](CCCC)NC(=O)[C@@H](N)CO)C(=O)N[C@@H](CCCNC(=N)N)C(=O)N[C@H]1CSSC[C@@H]2NC(=O)[C@H](CCCCN)NC(=O)CNC(=O)[C@H](Cc3ccccc3)NC(=O)[C@H]([C@@H](C)CC)NC(=O)[C@H](CO)NC(=O)CNC(=O)[C@H]([C@@H](C)CC)NC(=O)[C@H](C)NC(=O)[C@H](CCCCN)NC(=O)[C@H](CC(C)C)NC(=O)[C@@H]3CSSC[C@@H](C(=O)N[C@@H](Cc4ccc(O)cc4)C(=O)N4CCC[C@H]4C(=O)N[C@@H](CCCNC(=N)N)C(N)=O)NC(=O)[C@H](CCCCN)NC(=O)[C@H](CSSC[C@H](NC(=O)[C@H](CCC(=O)O)NC(=O)[C@H](C(C)C)NC(=O)[C@H](CO)NC(=O)[C@H](C)NC(=O)[C@H](CO)NC1=O)C(=O)N[C@@H](C(C)C)C(=O)N[C@@H](CCC(N)=O)C(=O)N[C@@H](CCCCN)C(=O)N3)NC(=O)[C@H](CCCCN)NC(=O)[C@H](CCCCN)NC(=O)[C@H](CC(N)=O)NC(=O)[C@H](CCSC)NC2=O` [Compound 72] (H-S[Nle]D[Nle]RCSASVECVQKCLKAIGSIFGKCMNKKCKCYPR-NH2; disulfide 6-27, 12-32, 16-34), the pIC50 in assay [1] was 9.72; against Rat whole blood, no less than 9.00; on Rat whole blood (setting [2]), 9.33.
Consider `CCCC[C@H](NC(=O)[C@@H]1CCCN1)C(=O)N[C@@H](CC(=O)O)C(=O)N[C@@H](CCCC)C(=O)N[C@@H](CCCNC(=N)N)C(=O)N[C@H]1CSSC[C@@H]2NC(=O)[C@H](CCCCN)NC(=O)CNC(=O)[C@H](Cc3ccccc3)NC(=O)[C@H]([C@@H](C)CC)NC(=O)[C@H](CO)NC(=O)CNC(=O)[C@H]([C@@H](C)CC)NC(=O)[C@H](C)NC(=O)[C@H](C)NC(=O)[C@H](CC(C)C)NC(=O)[C@@H]3CSSC[C@@H](C(=O)N[C@@H](Cc4ccc(O)cc4)C(=O)N4CCC[C@H]4C(=O)N[C@@H](CCCNC(=N)N)C(=O)O)NC(=O)[C@H](CCCCN)NC(=O)[C@H](CSSC[C@H](NC(=O)[C@H](CCC(=O)O)NC(=O)[C@H](C(C)C)NC(=O)[C@H](CO)NC(=O)[C@H](C)NC(=O)[C@H](CO)NC1=O)C(=O)N[C@@H](C)C(=O)N[C@@H](CCC(N)=O)C(=O)N[C@@H](CCCCN)C(=O)N3)NC(=O)[C@H](CCCCN)NC(=O)[C@H](CCCCN)NC(=O)[C@H](CC(N)=O)NC(=O)[C@H](CCSC)NC2=O` [Compound 102] (H-P[Nle]D[Nle]RCSASVECAQKCLAAIGSIFGKCMNKKCKCYPR-OH; disulfide 6-27, 12-32, 16-34), for which the pIC50 was 9.35 in assay [1], no less than 9.00 against Rat whole blood and 9.49 against Rat whole blood (setting [2]).
On to `CC[C@H](C)[C@@H]1NC(=O)[C@H](C)NC(=O)[C@H](C)NC(=O)[C@H](CC(C)C)NC(=O)[C@@H]2CSSC[C@@H](C(=O)N[C@@H](Cc3ccc(O)cc3)C(=O)N3CCC[C@H]3C(=O)N[C@@H](CCCNC(=N)N)C(=O)O)NC(=O)[C@H](CCCCN)NC(=O)[C@@H]3CSSC[C@H](NC(=O)[C@H](CCC(=O)O)NC(=O)[C@H](C(C)C)NC(=O)[C@H](CO)NC(=O)[C@H](C)NC(=O)[C@H](CO)NC(=O)[C@@H](NC(=O)[C@H](CCCNC(=N)N)NC(=O)[C@H](CC(C)C)NC(C)=O)CSSC[C@H](NC(=O)[C@H](CCCCN)NC(=O)CNC(=O)[C@H](Cc4ccccc4)NC(=O)[C@H]([C@@H](C)CC)NC(=O)[C@H](CO)NC(=O)CNC1=O)C(=O)N[C@@H](CCSC)C(=O)N[C@@H](CC(N)=O)C(=O)N[C@@H](CCCCN)C(=O)N[C@@H](CCCCN)C(=O)N3)C(=O)N[C@@H](CCCCN)C(=O)N[C@@H](CCC(N)=O)C(=O)N[C@@H](CCCCN)C(=O)N2` [Compound 116] (Ac-LRCSASVECKQKCLAAIGSIFGKCMNKKCKCYPR-OH; disulfide 3-24, 9-29, 13-31), for which the results for the pIC50 (in assay [1]; on Rat whole blood; against Rat whole blood (setting [2])) were 9.74, no less than 9.00 and 9.44, respectively.
On to `CCCC[C@H](NC(=O)[C@H](CC(=O)O)NC(=O)[C@H](CCCC)NC(=O)[C@@H](N)CO)C(=O)N[C@@H](CCCNC(=N)N)C(=O)N[C@H]1CSSC[C@@H]2NC(=O)[C@H](CCCCN)NC(=O)CNC(=O)[C@H](Cc3ccccc3)NC(=O)[C@H]([C@@H](C)CC)NC(=O)[C@H](CO)NC(=O)CNC(=O)[C@H]([C@@H](C)CC)NC(=O)[C@H](C)NC(=O)[C@H](CCCCN)NC(=O)[C@H](CC(C)C)NC(=O)[C@@H]3CSSC[C@@H](C(=O)N[C@@H](Cc4ccc(C)cc4)C(=O)N4CCC[C@H]4C(=O)N[C@@H](CCCNC(=N)N)C(N)=O)NC(=O)[C@H](CCCCN)NC(=O)[C@H](CSSC[C@H](NC(=O)[C@H](CCC(=O)O)NC(=O)[C@H](C(C)C)NC(=O)[C@H](CO)NC(=O)[C@H](C)NC(=O)[C@H](CO)NC1=O)C(=O)N[C@@H](CCCCN)C(=O)N[C@@H](CCC(N)=O)C(=O)N[C@@H](CCCCN)C(=O)N3)NC(=O)[C@H](CCCCN)NC(=O)[C@H](CCCCN)NC(=O)[C@H](CC(N)=O)NC(=O)[C@H](CCSC)NC2=O` [Compound 93] (H-S[Nle]D[Nle]RCSASVECKQKCLKAIGSIFGKCMNKKCKC[Phe(4-Me)]PR-NH2; disulfide 6-27, 12-32, 16-34), for which the pIC50 in assay [1] was 9.89; at Rat whole blood (setting [2]), 9.27.

As usually defined, the pIC50 is the negative decadic logarithm of the IC50, by convention in mol/L.
